The text below walks through data of US20260355225A1 (priority 2022, published 2026).

Values joined by “and” are separate entries in the source; they are usually repeats but may differ in a detail not shown here. Identical values can stand only once.

One series deals with HeLa TZMBL cells. Description: Cytotoxicity of D-xylose alone or + insulin, MTT assay, absence of viral infection (Example 2). (Tetrazolium assays rely on reduction of a dye to a coloured formazan, in cell work by metabolically active cells.)
For series [1], the system named is glycated hemoglobin (HbA1c). The conditions noted are these: healthy person; cited from earlier work.
Series [2] relates to SARS-CoV-2. The conditions noted are these: pre-incubation of 25 minutes prior to infection; cited from earlier work.
Series [3] is described as follows: Cytotoxicity of D-xylose, MTT assay, absence of viral infection (Example 1). The conditions noted are these: monkey, vero cells, remdesivir at the time of infection, read-out: Viability percentage. In kind it is cell-based.
Protocol: (§1) Cells (Vero E6) were used, with two modes of administration: either at the same time or 6 h before infection with SARS-CoV-2 (isolated early).
(§2) The readout for this test is CPE, so the infection will be stopped at 72 hpi (hours post-infection), and the compound will remain for the duration of the experiment. In parallel, the cytotoxicity of the same compound concentrations will be tested in the absence of viral infection.
(§3) The day before the experiment, the 8,000 cells/well are seeded in two 96-well plates (clear, Sarstedt), one for the antiviral study and one for the cytotoxicity study.
(§4) 134.4 μl of the 1 M composition is transferred to 1,465.6 μl of infection medium (=84 mM, twice the final maximum concentration).
(§5) Next, the cell support in the cytotoxicity plate is removed.
(§6) Immediately afterwards, 50 μl of undiluted infection medium is added to all the wells.
(§7) Next, 50 μl of infection medium without diluent is added to columns 4 to 6.
(§8) Next, the plate is incubated at 37 °C, 5% CO2 for 48 h.
(§9) After 72 h, when the CPE is evident, an MTT assay is performed for the antiviral and cytotoxicity plates.
The subject of the next series is Vero AD cells. The description is as above. In kind it is cell-based. The following applies: remdesivir at the time of infection.
The test system of series [4] is SARS-CoV-2. Description: Antiviral assay, inhibition of virus-induced cytopathic effect (CPE) of SARS-CoV-2 by MTT assay (Example 1). The conditions noted are these: remdesivir at the time of infection; for Viability percentage: 4320 min.
A short description of series [5]: Cytotoxicity of D-xylose alone or + insulin, MTT assay, absence of viral infection (Example 2). The conditions noted are these: human, hela tzmbl cells.
Series [6] is described as follows: Antiviral assay against HIV-1 NL4-3, percentage of infected cells by immunofluorescence (Example 2). The following applies: human, hela tzmbl cells, Viability Percentages, replicate wells.
In the next series the test system is HIV-1 NL4-3. The description is as above. The conditions noted are these: Human immunodeficiency virus 1, NL43, 48 h.
The mark [7] stands for this setting: Triton added to untreated cells as control.
The mark [8] stands for this setting: AZT 0.002 μM, 2880 min, 0.002 µM.
Where [9] appears, read: AZT 0.007 μM, 2880 min, 0.007 µM.
[10] abbreviates: AZT 0.062 μM, 2880 min, 0.062 µM.
Where [11] appears, read: AZT 0.556 μM, 2880 min, 0.556 µM.
The mark [12] stands for this setting: AZT 1.667 μM, 2880 min, 1.667 µM.

Protocol for Vero AD cells: as §1, §2, §3, §4, §5, §6, §7, §8, §9

Regarding Triton [reference compound], in the series on HeLa TZMBL cells (setting [7]), the Cytotoxicity percentage was 99.99% and 100.03%; the “Results for Cytotoxicity (MTT readout)” value is 0.040 and 0.039; the Viability percentage was 0.01% and −0.03%.
With `OC[C@@H](O)[C@H](O)[C@@H](O)CO` [xylitol, reference compound], the “effect on glycated hemoglobin (HbA1c) levels” value in series [1] is “little or no effect”.
Regarding heparin, in the series on SARS-CoV-2 [2], the “inhibition of SARS-CoV-2 viral attachment” value is reported as “inhibits SARS-CoV-2 viral attachment”.
Consider `CCC(CC)COC(=O)[C@H](C)N[P@](=O)(OC[C@H]1O[C@@](C#N)(c2ccc3c(N)ncnn23)[C@H](O)[C@@H]1O)Oc1ccccc1` [Remdesivir, reference compound], for which the viability (usually a read-out of living cells in per cent, often relative to untreated cells) at […] in series [3] (0.16 μm) was determined as 100%. Moreover, the viability at 0.31 µM in series [3] (0.31 μm) was found to be 106%. Besides, the viability at 0.63 µM in series [3] (0.63 μm) was determined as 102%. Also, the viability at 1.25 µM in series [3] (1.25 μm) came to 103%. The viability at 2.5 µM in series [3] (2.5 μm) was determined as 112%. Also, the viability at 5 µM in [3] (5 μm) is 110%. Moreover, the viability at 10 µM in series [3] (10 μm) is 105%. The viability at 20 µM in [3] (20 μm) turned out to be 101%. Moreover, the Viability percentage in the series with Vero AD cells (0.31 μm) was 99.84%; in the series on Vero AD cells (0.63 μm), 108.33%; in the series on Vero AD cells (1.25 μm) it was 110.83% and 112.82%; in the series with Vero AD cells (2.5 μm), 107.83% and 115.32%; in the series with Vero AD cells (5 μm), 122.31%; with Vero AD cells (10 μm) it was 106.83%. Moreover, the Viability percentage is 94.35% and 93.35% in the series on Vero AD cells (20 μm); 47.72% and 46.55% and 58.30% with SARS-CoV-2 [4] (1.25 μm); 92.36% and 106.46% and 126.43% in the series with SARS-CoV-2 [4] (2.5 μm); 101.76% and 129.96% and 149.93% in the series on SARS-CoV-2 [4] (5 μm); 118.21% and 95.89% and 131.13% in the series with SARS-CoV-2 [4] (10 μm); 80.62% and 86.49% and 79.44% in the series with SARS-CoV-2 [4] (20 μm). In addition, the “absorbance at 570 nm” value was 0.086 and 0.077 and 0.078 in the series on SARS-CoV-2 [4] (0.16 μm); 0.084 and 0.098 in the series on SARS-CoV-2 [4] (0.31 μm); 0.094 in the series on SARS-CoV-2 [4] (0.63 μm); 0.127 and 0.137 and 0.128 in the series with SARS-CoV-2 [4] (1.25 μm); 0.178 and 0.195 in the series on SARS-CoV-2 [4] (2.5 μm); 0.198 and 0.215 and 0.174 in the series with SARS-CoV-2 [4] (5 μm). Besides, the “absorbance at 570 nm” value in the series with SARS-CoV-2 [4] (10 μm) was 0.169 and 0.199 and 0.188.
For the compound `Cc1cn([C@H]2C[C@H](N=[N+]=[N-])[C@@H](CO)O2)c(=O)[nH]c1=O` [AZT, 3-azido-3-deoxythymidine, reference compound], the cytotoxicity at 48 h, 0.007 µM in series [5] (Cytotoxicity percentage, AZT 0.007 μM) came out at 5.07%. Moreover, the cytotoxicity at 48 h, 0.062 µM in series [5] (Cytotoxicity percentage, AZT 0.062 μM) was 4.36%. Moreover, the viability at 48 h, 0.002 µM in [5] (Viability percentage, AZT 0.002 μM) is 102%; in [6] (AZT 0.002 μM), 29.9%. Moreover, the viability at 48 h, 0.007 µM in [5] (Viability percentage, AZT 0.007 μM) stood at 94.9%; in series [6] (AZT 0.007 μM), 48.2%. Besides, the viability at 48 h, 0.062 µM in [5] (Viability percentage, AZT 0.062 μM) is 95.6%; in series [6] (AZT 0.062 μM), 74.2%. Besides, the viability at 48 h, 0.556 µM in series [5] (Viability percentage, AZT 0.556 μM) came to 97.6%; in [6] (AZT 0.556 μM), 92.5%. Besides, the viability at 48 h, 1.667 µM in [5] (Viability percentage, AZT 1.667 μM) worked out at 102%; in [6] (AZT 1.667 μM) it was 96.8%. For the same compound, the viability at 48 h, 5 µM in [5] (Viability percentage, AZT 5.000 μM) is 96.9%; in series [6] (AZT 5.000 μM), 99.1%. For the same compound, the “Results for Cytotoxicity (MTT readout)” value is 2.455 and 2.474 and 2.438 in the series with HeLa TZMBL cells (AZT 0.002 μM); 2.29 and 2.333 and 2.278 with HeLa TZMBL cells (AZT 0.007 μM); 2.307 and 2.356 and 2.337 with HeLa TZMBL cells (AZT 0.062 μM); 2.353 and 2.414 and 2.406 in the series on HeLa TZMBL cells (AZT 0.556 μM); 2.46 and 2.505 and 2.469 with HeLa TZMBL cells (AZT 1.667 μM); 2.337 and 2.402 and 2.36 with HeLa TZMBL cells (AZT 5.000 μM). Moreover, the Cytotoxicity percentage with HeLa TZMBL cells (setting [8]) was −1.89% and −2.69% and −1.17%; in the series on HeLa TZMBL cells (setting [9]), 3.26% and 5.58%; in the series with HeLa TZMBL cells (setting [10]), 2.29% and 3.09%; in the series on HeLa TZMBL cells (setting [11]), 2.42% and −0.16% and 0.18%; in the series on HeLa TZMBL cells (setting [12]), −2.10% and −4.00% and −2.48%; with HeLa TZMBL cells (AZT 5.000 μM, 2880 min, 5 µM), 3.09% and 0.35% and 2.12%. Also, the Viability percentage in the series with HeLa TZMBL cells (setting [8]) is 102.69% and 101.17%; in the series with HeLa TZMBL cells (setting [9]) it was 96.74% and 94.42%; with HeLa TZMBL cells (setting [10]) it was 97.71%; in the series with HeLa TZMBL cells (setting [11]) it was 100.16% and 99.82%; in the series on HeLa TZMBL cells (setting [12]), 104.00% and 102.48%; in the series on HeLa TZMBL cells (AZT 5.000 μM, 2880 min, 5 µM) it was 99.65% and 97.88%. Moreover, in the series with HIV-1 NL4-3 (read-out: % Infection, AZT 0.002 μM, replicate wells), the activity at 0.002 µM was determined as 13.3%. Also, the activity at 0.007 µM in the series with HIV-1 NL4-3 (read-out: % Infection, AZT 0.007 μM, replicate wells) came to 9.89%. The activity at 0.062 µM in the series with HIV-1 NL4-3 (read-out: % Infection, AZT 0.062 μM, replicate wells) is 5.07%. In the series on HIV-1 NL4-3 (read-out: % Infection, AZT 0.556 μM, replicate wells), the activity at 0.556 µM stood at 1.7%. For the same compound, the activity at 1.667 µM in the series on HIV-1 NL4-3 (read-out: % Infection, AZT 1.667 μM, replicate wells) amounted to 0.89%. In the series with HIV-1 NL4-3 (read-out: % Infection, AZT 5.000 μM, replicate wells), the activity at 5 µM was 0.47%.
